According to patent US20100093662A1, “NOVEL AMPHIPHILIC CYCLODEXTRIN DERIVATIVES” (CENTRE NATIONAL DE LA RECHERCHE SCIENTIFIQUE-CNRS-, priority 2006, published 2010):

Experiment: Size and polydispersion of white homogenous nanospheres (quasi-elastic diffusion of light), physical stability over time
Assay type: physicochemical
Procedure: The method used to prepare white homogenous nanospheres consists in introducing an organic phase of acetone (or tetrahydrofurane) and an amphiphilic cyclodextrin derivative from the invention (1 mg·mL^−1) in an aqueous phase of equivalent volume or a double volume (distilled water), under magnetic stirring (500 r.p.m.) at 25° C. After nanoprecipitation, the organic solvent is eliminated under reduced pressure at +35° C. The aqueous suspension presenting an opalescent to milky appearance (according to the products used) is then concentrated until the final volume desired is obtained, then filtered on a 0.8 μm filter (Millex AA, Millipore, France).
The colloid suspensions are then characterised as regards the granulometry (mean size and polydisperion) and, when they incorporate loaded amphiphilic cyclodextrins, by their zeta potential. The characterisation is carried out using the following methods:
The quasi-elastic diffusion of light is used. A Zetasizer 3000 apparatus equipped with a K7132 correlator (Malvern Instruments, RU) was used. The conditions for measurement are as follows: angle of detection 90°, temperature 25±0.1° C., apparent viscosity 0.89 mPa·s. Before measuring the size, samples are diluted in distilled water if necessary. The hydrodynamic diameter (mean Z) and polydispersion index (PI) of the nanoparticles in suspension are calculated in intensity by the cumulant method by carrying out 3 measurements on the same sample. The value of the hydrodynamic diameter is calculated using the measurement of the translational coefficient of diffusion of particles with Brownian movement. An NanoZS apparatus (Malvern Instruments) was also used to measure the size of the nanocapsules. In the same way, the samples are diluted before measurement, if necessary in water added to Montanox 80 (trade mark).
The studies on the physical stability of particles were carried out over periods ranging from 1 month to 8 months. The corresponding data for a series of amphiphilic cyclodextrins in the invention are indicated in Table 1 providing the granulometric characteristics (mean size and polydispersion index or mean PI), with evolution over time, of different homogenous nanospheres derived from the compounds indicated in the left column, the reference number for said compounds corresponding to those of the compounds described in the above examples.

Compound	Mean size ± standard deviation (n = 3) (8 months) [nm]	PI (polydispersion index) (8 months)	Mean size ± standard deviation (n = 3) (initial) [nm]	PI (polydispersion index) (initial)	IP (polydispersion index) (3 months)	Mean size ± standard deviation (n = 3) (3 months) [nm]	IP (polydispersion index) (6 months)	Mean size ± standard deviation (n = 3) (6 months) [nm]
CCCCCC(=O)O[C@@H]1[C@@H](OC(=O)CCCCC)[C@H]2O[C@H]3[C@H](OC(=O)CCCCC)[C@@H](OC(=O)CCCCC)[C@@H](O[C@H]4[C@H](OC(=O)CCCCC)[C@@H](OC(=O)CCCCC)[C@@H](O[C@H]5[C@H](OC(=O)CCCCC)[C@@H](OC(=O)CCCCC)[C@@H](O[C@H]6[C@H](OC(=O)CCCCC)[C@@H](OC(=O)CCCCC)[C@@H](O[C@H]7[C@H](OC(=O)CCCCC)[C@@H](OC(=O)CCCCC)[C@@H](O[C@H]8[C@H](OC(=O)CCCCC)[C@@H](OC(=O)CCCCC)[C@@H](O[C@@H]1[C@@H](CSCCNC(=O)OC(C)(C)C)O2)O[C@@H]8CSCCNC(=O)OC(C)(C)C)O[C@@H]7CSCCNC(=O)OC(C)(C)C)O[C@@H]6CSCCNC(=O)OC(C)(C)C)O[C@@H]5CSCCNC(=O)OC(C)(C)C)O[C@@H]4CSCCNC(=O)OC(C)(C)C)O[C@@H]3CSCCNC(=O)OC(C)(C)C [compound no. 7, heptakis[6-(2-tert-butoxycarbonylaminoethylthio)-6-desoxy-2,3-di-0-hexanoyl]cyclomaltoheptaose]	194 ± 2	0.02	283 ± 29	0.06				
CCCCCCCCCCCCCC(=O)O[C@@H]1[C@@H](OC(=O)CCCCCCCCCCCCC)[C@H]2O[C@H]3[C@H](OC(=O)CCCCCCCCCCCCC)[C@@H](OC(=O)CCCCCCCCCCCCC)[C@@H](O[C@H]4[C@H](OC(=O)CCCCCCCCCCCCC)[C@@H](OC(=O)CCCCCCCCCCCCC)[C@@H](O[C@H]5[C@H](OC(=O)CCCCCCCCCCCCC)[C@@H](OC(=O)CCCCCCCCCCCCC)[C@@H](O[C@H]6[C@H](OC(=O)CCCCCCCCCCCCC)[C@@H](OC(=O)CCCCCCCCCCCCC)[C@@H](O[C@H]7[C@H](OC(=O)CCCCCCCCCCCCC)[C@@H](OC(=O)CCCCCCCCCCCCC)[C@@H](O[C@H]8[C@H](OC(=O)CCCCCCCCCCCCC)[C@@H](OC(=O)CCCCCCCCCCCCC)[C@@H](O[C@@H]1[C@@H](CBr)O2)O[C@@H]8CBr)O[C@@H]7CBr)O[C@@H]6CBr)O[C@@H]5CBr)O[C@@H]4CBr)O[C@@H]3CBr [compound no. 5, heptakis(6-bromo-6-desoxy-2,3-di-O-myristoyl)cyclomaltoheptaose]			244 ± 13	0.13	0.05	232 ± 22	0.03	242 ± 27
CCCCCC(=O)O[C@@H]1[C@@H](OC(=O)CCCCC)[C@H]2O[C@H]3[C@H](OC(=O)CCCCC)[C@@H](OC(=O)CCCCC)[C@@H](O[C@H]4[C@H](OC(=O)CCCCC)[C@@H](OC(=O)CCCCC)[C@@H](O[C@H]5[C@H](OC(=O)CCCCC)[C@@H](OC(=O)CCCCC)[C@@H](O[C@H]6[C@H](OC(=O)CCCCC)[C@@H](OC(=O)CCCCC)[C@@H](O[C@H]7[C@H](OC(=O)CCCCC)[C@@H](OC(=O)CCCCC)[C@@H](O[C@H]8[C@H](OC(=O)CCCCC)[C@@H](OC(=O)CCCCC)[C@@H](O[C@@H]1[C@@H](CN=[N+]=[N-])O2)O[C@@H]8CN=[N+]=[N-])O[C@@H]7CN=[N+]=[N-])O[C@@H]6CN=[N+]=[N-])O[C@@H]5CN=[N+]=[N-])O[C@@H]4CN=[N+]=[N-])O[C@@H]3CN=[N+]=[N-] [compound no. 3, heptakis(6-azido-6-desoxy-2,3-di-O-hexanoyl)cyclomaltoheptaose]			181 ± 5	0.08	0.06	157 ± 8	0.18	206 ± 17
heptakis[6-desoxy-2,3-di-0-myristoyl-6-(2-isothiocyanatoethylthio)]cyclomaltoheptaose [compound no. 12]			72 ± 32	0.31				
CCCCCCCCCCCCCC(=O)O[C@@H]1[C@@H](OC(=O)CCCCCCCCCCCCC)[C@H]2O[C@H]3[C@H](OC(=O)CCCCCCCCCCCCC)[C@@H](OC(=O)CCCCCCCCCCCCC)[C@@H](O[C@H]4[C@H](OC(=O)CCCCCCCCCCCCC)[C@@H](OC(=O)CCCCCCCCCCCCC)[C@@H](O[C@H]5[C@H](OC(=O)CCCCCCCCCCCCC)[C@@H](OC(=O)CCCCCCCCCCCCC)[C@@H](O[C@H]6[C@H](OC(=O)CCCCCCCCCCCCC)[C@@H](OC(=O)CCCCCCCCCCCCC)[C@@H](O[C@H]7[C@H](OC(=O)CCCCCCCCCCCCC)[C@@H](OC(=O)CCCCCCCCCCCCC)[C@@H](O[C@H]8[C@H](OC(=O)CCCCCCCCCCCCC)[C@@H](OC(=O)CCCCCCCCCCCCC)[C@@H](O[C@@H]1[C@@H](CI)O2)O[C@@H]8CI)O[C@@H]7CI)O[C@@H]6CI)O[C@@H]5CI)O[C@@H]4CI)O[C@@H]3CI [compound no. 4, heptakis(6-desoxy-6-iodo-2,3-di-O-myristoyl)cyclomaltoheptaose]			217 ± 17	0.04	0.03	206 ± 20	0.06	227 ± 26
heptakis(6-azido-6-desoxy-2,3-di-0-myristoyl)cyclomaltoheptaose [compound no. 6]			171 ± 9	0.03	0.06	157 ± 8	0.04	198 ± 12
CCCCCC(=O)O[C@@H]1[C@@H](OC(=O)CCCCC)[C@H]2O[C@H]3[C@H](OC(=O)CCCCC)[C@@H](OC(=O)CCCCC)[C@@H](O[C@H]4[C@H](OC(=O)CCCCC)[C@@H](OC(=O)CCCCC)[C@@H](O[C@H]5[C@H](OC(=O)CCCCC)[C@@H](OC(=O)CCCCC)[C@@H](O[C@H]6[C@H](OC(=O)CCCCC)[C@@H](OC(=O)CCCCC)[C@@H](O[C@H]7[C@H](OC(=O)CCCCC)[C@@H](OC(=O)CCCCC)[C@@H](O[C@H]8[C@H](OC(=O)CCCCC)[C@@H](OC(=O)CCCCC)[C@@H](O[C@@H]1[C@@H](CBr)O2)O[C@@H]8CBr)O[C@@H]7CBr)O[C@@H]6CBr)O[C@@H]5CBr)O[C@@H]4CBr)O[C@@H]3CBr [compound no. 2, heptakis(6-bromo-6-desoxy-2,3-di-O-hexanoyl)cyclomaltoheptaose]	182 ± 22	0.01	238 ± 29	0.02				
CCCCCC(=O)O[C@@H]1[C@@H](OC(=O)CCCCC)[C@H]2O[C@H]3[C@H](OC(=O)CCCCC)[C@@H](OC(=O)CCCCC)[C@@H](O[C@H]4[C@H](OC(=O)CCCCC)[C@@H](OC(=O)CCCCC)[C@@H](O[C@H]5[C@H](OC(=O)CCCCC)[C@@H](OC(=O)CCCCC)[C@@H](O[C@H]6[C@H](OC(=O)CCCCC)[C@@H](OC(=O)CCCCC)[C@@H](O[C@H]7[C@H](OC(=O)CCCCC)[C@@H](OC(=O)CCCCC)[C@@H](O[C@H]8[C@H](OC(=O)CCCCC)[C@@H](OC(=O)CCCCC)[C@@H](O[C@@H]1[C@@H](CI)O2)O[C@@H]8CI)O[C@@H]7CI)O[C@@H]6CI)O[C@@H]5CI)O[C@@H]4CI)O[C@@H]3CI [compound no. 1, heptakis(6-desoxy-2,3-di-0-hexanoyl-6-iodo) cyclomaltoheptaose]	236 ± 13	0.03	251 ± 62	0.08				
CCCCCC(=O)OC1C2OC(CSCCNC(=S)NC)C(OC3OC(CSCCNC(=S)NC)C(OC4OC(CSCCNC(=S)NC)C(OC5OC(CSCCNC(=S)NC)C(OC6OC(CSCCNC(=S)NC)C(OC7OC(CSCCNC(=S)NC)C(OC8OC(CSCCNC(=S)NC)C(O2)C(OC(=O)CCCCC)C8OC(=O)CCCCC)C(OC(=O)CCCCC)C7OC(=O)CCCCC)C(OC(=O)CCCCC)C6OC(=O)CCCCC)C(OC(=O)CCCCC)C5OC(=O)CCCCC)C(OC(=O)CCCCC)C4OC(=O)CCCCC)C(OC(=O)CCCCC)C3OC(=O)CCCCC)C1OC(=O)CCCCC (stereo not shown) [compound no. 13, heptakis[6-desoxy-2,3-di-0-hexanoyl-6-(2-(N′-methylthioureido)ethylthio)]cyclomaltoheptaose]			115 ± 31	0.16				
